Data: patent US4920103A, “Modifications of mycinose and 3-O-demethylmycinose in tylosin-type macrolides” (Eli Lilly and Company, priority 1986, dated 1990)
In brackets after ≈: the same amount, converted by molar mass. Like-named read-outs stand apart in the source and are kept apart here.

Tests used:
Type in all cases: cell-based
[1] = system: Streptococcus Group D 2041; assay: MIC, standard agar-dilution assay, Streptococcus Group D 2041; details: GROUPD2041
Experimental: (§1) The MIC's in Table II were determined by standard agar-dilution assays. The MIC's in Table III were obtained using conventional broth-dilution microtiter tests.

[2] = system: Haemophilus influenzae C.L.; assay: MIC, standard agar-dilution assay, H. influenzae C.L.
Experimental: as §1

[3] = system: Staphylococcus aureus X1.1; assay: MIC, standard agar-dilution assay, S. aureus X1.1
Experimental: as §1

[4] = system: Streptococcus pneumoniae Park I; assay: MIC, standard agar-dilution assay, S. pneumoniae Park I; details: Streptococcus pneumoniae
Experimental: as §1

[5] = system: Staphylococcus aureus V41; assay: MIC, standard agar-dilution assay, S. aureus V41; details: Staphylococcus aureus, V41
Experimental: as §1

[6] = system: Klebsiella pneumoniae X68; assay: MIC, standard agar-dilution assay, K. pneumoniae X68
Experimental: as §1

[7] = system: Staphylococcus epidermidis 222; assay: MIC, standard agar-dilution assay, S. epidermidis 222
Experimental: as §1

[8] = system: Pseudomonas aeruginosa X239; assay: MIC, standard agar-dilution assay, P. aeruginosa X239
Experimental: as §1

[9] = system: Staphylococcus aureus X400; assay: MIC, standard agar-dilution assay, S. aureus X400
Experimental: as §1

[10] = system: Streptococcus Group D X66; assay: MIC, standard agar-dilution assay, Streptococcus Group D X66
Experimental: as §1

[11] = system: Streptococcus pyogenes C203; assay: MIC, standard agar-dilution assay, S. pyogenes C203; details: Streptococcus pyogenes, C203
Experimental: as §1

Escherichia coli EC14 = assay: MIC, standard agar-dilution assay, E. coli EC14
Experimental: as §1

[12] = system: Staphylococcus aureus S13E; assay: MIC, standard agar-dilution assay, S. aureus S13E
Experimental: as §1

[13] = system: Staphylococcus epidermidis EPI1; assay: MIC, standard agar-dilution assay, S. epidermidis EPI1
Experimental: as §1

[14] = system: Haemophilus influenzae 76; assay: MIC, standard agar-dilution assay, H. influenzae 76
Experimental: as §1

[15] = agar-dilution, ampicillin-sensitive strain, read-out: MIC
[16] = agar-dilution, ampicillin-resistant strain, read-out: MIC

SMILES | MIC [1] [µg/mL] | MIC [2, 15] [µg/mL] | MIC [3] [µg/mL] | MIC [5] [µg/mL] | MIC ([6]; agar-dilution, read-out: MIC) [µg/mL] | MIC [7] [µg/mL] | MIC ([8]; agar-dilution, read-out: MIC) [µg/mL] | MIC [9] [µg/mL] | MIC [10] [µg/mL] | MIC (Escherichia coli EC14; agar-dilution, read-out: MIC) [µg/mL] | MIC [12] [µg/mL] | MIC [13] [µg/mL] | MIC [14, 16] [µg/mL] | MIC [2] [µg/mL] | MIC [14] [µg/mL] | further results
CCC1OC(=O)CC(O)C(C)C(OC2OC(C)C(O)C(N(C)C)C2O)C(CCOc2ccccc2)CC(C)C(=O)C=CC(C)=CC1COC1OC(C)C(OCCOC)C(OC)C1OC (stereo not shown) [Compound 44, 20-DH-4"-(2-Methoxyethoxy)-20-O-phenyl-desmycosin] | 32 (≈ 35.2 µM) | > 128 | 2 (≈ 2.2 µM) | 2 (≈ 2.2 µM) | > 128 | 2 (≈ 2.2 µM) | > 128 | 2 (≈ 2.2 µM) | 8 (≈ 8.81 µM) | > 128 | 2 (≈ 2.2 µM) | 2 (≈ 2.2 µM) | > 128 | – | – | MIC [4]: 4 µg/mL (≈ 4.4 µM); MIC [11]: 4 µg/mL (≈ 4.4 µM)
CCC1OC(=O)CC(O)C(C)C(OC2OC(C)C(O)C(N(C)C)C2O)C(CCOc2ccccc2)CC(C)C(=O)C=CC(C)=CC1COC1OC(C)C(N(C)CC#N)C(OC)C1OC (stereo not shown) [Compound 29, 4"-[(Cyanomethyl)methylamino]-4"-deoxy-20-DH-20-O-phenyl-desmycosin] | 64 (≈ 70.9 µM) | – | 2 (≈ 2.22 µM) | 2 (≈ 2.22 µM) | – | 2 (≈ 2.22 µM) | – | 2 (≈ 2.22 µM) | 32 (≈ 35.5 µM) | – | 2 (≈ 2.22 µM) | 1 (≈ 1.11 µM) | – | 16 (≈ 17.7 µM) | 32 (≈ 35.5 µM) | MIC [6]: > 128 µg/mL; MIC [8]: > 128 µg/mL; MIC (Escherichia coli EC14): > 128 µg/mL
CCC1OC(=O)CC(O)C(C)C(OC2OC(C)C(O)C(N(C)C)C2O)C(CCOc2ccccc2)CC(C)C(=O)C=CC(C)=CC1COC1OC(C)C(n2cccc2)C(OC)C1OC (stereo not shown) [Compound 46, 4"-Deoxy-20-DH-20-O-phenyl-4"-pyrrol-1-yl-desmycosin] | 64 (≈ 71.2 µM) | > 128 | 8 (≈ 8.9 µM) | 8 (≈ 8.9 µM) | – | 4 (≈ 4.45 µM) | > 128 | 8 (≈ 8.9 µM) | 32 (≈ 35.6 µM) | > 128 | 8 (≈ 8.9 µM) | 8 (≈ 8.9 µM) | > 128 | – | – | MIC [4]: 2 µg/mL (≈ 2.22 µM); MIC [11]: 16 µg/mL (≈ 17.8 µM)
CCC1OC(=O)CC(O)C(C)C(OC2OC(C)C(O)C(N(C)C)C2O)C(CCOc2ccccc2)CC(C)C(=O)C=CC(C)=CC1COC1OC(C)C(NCC#N)C(OC)C1OC (stereo not shown) [Compound 27, 4"-(Cyanomethyl)amino-4"-deoxy-20-DH-20-O-phenyl-desmycosin] | 16 (≈ 18 µM) | – | 0.5 (≈ 0.563 µM) | 1 (≈ 1.13 µM) | > 128 | 0.5 (≈ 0.563 µM) | > 128 | 0.5 (≈ 0.563 µM) | 8 (≈ 9.01 µM) | > 128 | 0.5 (≈ 0.563 µM) | 0.5 (≈ 0.563 µM) | – | 4 (≈ 4.5 µM) | 8 (≈ 9.01 µM) | –
CCC1OC(=O)CC(O)C(C)C(OC2OC(C)C(O)C(N(C)C)C2O)C(CCOc2ccccc2)CC(C)C(=O)C=CC(C)=CC1COC1OC(C)C(N(C)C)C(OC)C1OC (stereo not shown) [Compound 33, 4"-Deoxy-20-DH-4"-dimethylamino-20-O-phenyl-desmycosin] | 64 (≈ 73 µM) | – | 4 (≈ 4.56 µM) | 4 (≈ 4.56 µM) | > 128 | – | > 128 | – | 32 (≈ 36.5 µM) | > 128 | 4 (≈ 4.56 µM) | – | – | 64 (≈ 73 µM) | 64 (≈ 73 µM) | MIC ([7]; agar-dilution, read-out: MIC): 2 µg/mL (≈ 2.28 µM); MIC ([9]; agar-dilution, methicillin-resistant strain, read-out: MIC): 2 µg/mL (≈ 2.28 µM); MIC ([13]; agar-dilution, read-out: MIC): 2 µg/mL (≈ 2.28 µM)
CCC1OC(=O)CC(O)C(C)C(OC2OC(C)C(O)C(N(C)C)C2O)C(CCOc2ccccc2)CC(C)C(=O)C=CC(C)=CC1COC1OC(C)C(NC)C(OC)C1OC (stereo not shown) [Compound 31, 4"-Deoxy-20-DH-4"-methylamino-20-O-phenyl-desmycosin] | 2 (≈ 2.32 µM) | – | 0.5 (≈ 0.579 µM) | 0.5 (≈ 0.579 µM) | > 128 | 0.5 (≈ 0.579 µM) | > 128 | 0.5 (≈ 0.579 µM) | 2 (≈ 2.32 µM) | > 128 | 0.25 (≈ 0.29 µM) | – | – | 32 (≈ 37.1 µM) | – | MIC ([4]; agar-dilution, read-out: MIC): 0.125 µg/mL (≈ 0.145 µM); MIC ([11]; agar-dilution, read-out: MIC): 0.125 µg/mL (≈ 0.145 µM)
CCC1OC(=O)CC(O)C(C)C(OC2OC(C)C(O)C(N(C)C)C2O)C(CCOc2ccccc2)CC(C)C(=O)C=CC(C)=CC1COC1OC(C)C(NC(C)C)C(OC)C1OC (stereo not shown) [Compound 35, 4"-Deoxy-20-DH-4"-isopropylamino-20-O-phenyldesmycosin] | – | 128 (≈ 144 µM) | 8 (≈ 8.98 µM) | 16 (≈ 18 µM) | > 128 | 8 (≈ 8.98 µM) | > 128 | 16 (≈ 18 µM) | 64 (≈ 71.8 µM) | > 128 | 16 (≈ 18 µM) | 8 (≈ 8.98 µM) | 128 (≈ 144 µM) | – | – | MIC ([1]; agar-dilution, read-out: MIC): 128 µg/mL (≈ 144 µM)
